{
  "source": "patent US20220257559A1",
  "about": "“INTESTINAL MICROBIOME-IMPROVING COMPOSITION INCLUDING ELLAGIC ACID AS ACTIVE INGREDIENT” (Andong National University Industry-Academic Cooperation …, priority 2021, published 2022)",
  "format_in_all_cases": "in vivo",
  "key": {"cecal microbiota": {"test_system": "cecal microbiota", "test": "cecal microbiota 16S sequencing, alcohol exposure and EA pretreatment in mice", "method": "All animal testing procedures were performed in accordance with Andong National University's small animal testing guidelines, and were approved by the Andong National University Animal Care and Use Committee. All mice were housed where food and water were provided autonomously, and lighting was controlled (12-hour light/dark cycle). The ellagic acid was orally administered to 6-week-old female C57BL/6J mice at a daily dose of 60 mg/Kg as a physiologically and clinically relevant dose, and 200 mg/Kg silymarin was administered as a positive control. Water was orally administered to control mice. After the administration of ellagic acid for 14 days, alcohol or dextrose (control) was orally administered to some of the mice at a dose of 5 g/Kg, three times at 12-hour intervals. The mice were […] 1 hour after the last administration. Fecal samples were aseptically collected from the cecum of each mouse and frozen at -80° C. DNA was extracted using the Mag-Bind Universal Pathogen DNA Kit (Chunlab, Seoul, South Korea) according to the manufacturer's instructions. DNA sequencing of bacterial 16S rRNA in each fecal sample was performed at Chunlab (https://www.chunlab.com/). Intestinal microbiome and bacterial products have been associated with liver diseases (ALD). To evaluate the effect of ellagic acid (EA) on the intestinal microbial distribution in an alcoholic liver disease model, the cecal microbiota according to alcohol exposure and EA pretreatment in mice was evaluated according to the experimental design of FIG. 1. […] However, in the case of the alcohol exposure group, Verrucomicrobia phylum increased whereas Firmicutes phylum decreased."}, "TNF-α": {"test_system": "TNF-α", "test": "intestinal TNF-α level (ELISA) in alcohol-exposed mice", "conditions": "EA pretreatment vs alcohol-exposed group; EA 60 mg/Kg daily oral 14 days; FIG. 8", "method": "(§1) All animal testing procedures were performed in accordance with Andong National University's small animal testing guidelines, and were approved by the Andong National University Animal Care and Use Committee. All mice were housed where food and water were provided autonomously, and lighting was controlled (12-hour light/dark cycle). The ellagic acid was orally administered to 6-week-old female C57BL/6J mice at a daily dose of 60 mg/Kg as a physiologically and clinically relevant dose, and 200 mg/Kg silymarin was administered as a positive control. Water was orally administered to control mice. After the administration of ellagic acid for 14 days, alcohol or dextrose (control) was orally administered to some of the mice at a dose of 5 g/Kg, three times at 12-hour intervals. The mice were sacrificied 1 hour after the last administration.\nLiver solutions were analyzed using an ELISA kit for TNF-α, manufactured by Abcam (Cambridge, United Kingdom), according to the manufacturer's instructions. To use equal amounts of protein for the ELISA, protein concentration was measured with BCA reagent manufactured by BioRad (Hercules, Calif.). […]\n(§2) Intestinal microbial products can be stimulated by intestinal leak and endotoxins. Plasma endotoxin and intestinal TNF-α levels were measured to determine whether ellagic acid (EA)-mediated prophylaxis occurred at altered levels of microbial composition."}, "[1]": {"test_system": "CYP2E1, iNOS, and 3-NT proteins in the intestine", "test": "intestinal oxidative stress marker proteins (immunoblot) in alcohol-exposed mice", "conditions": "EA-pretreated group vs alcohol-exposed group; FIG. 9", "quoted_text": "Portions of liver tissue and small intestine from each mouse were homogenized with RIPA buffer. Equally pooled protein in an amount of 50 ug collected from different mouse samples within the same group were separated by SDS/PAGE and transferred to nitrocellulose membranes. These membranes were incubated with polyclonal antibodies against CYP2E1 (1:5,000 dilution; Abcam), p-JNK (1:1,000 dilution; Cell Signaling), 3-NT (1:5,000 dilution; Abcam), iNOS (1:5,000 dilution; Abcam), cleaved caspase-3 (1:1,000 dilution; Cell Signaling), ZO-1 (1:5,000 dilution; Abcam), and claudin-1 (1:1,000 dilution; Thermo Fisher). Each mouse monoclonal antibody against JNK (1:1,000 dilution; Cell Signaling), Bax (1:1,000 dilution; Santa Cruz Biotechnology), or +-actin (1:10,000 dilution; Santa Cruz Biotechnology) was used to detect specific antigenic targets. […] Relative protein images were determined using the HRP-binding secondary antibody and an ECL substrate (Thermo Fishers). The intensity of immune response bands was quantified by density using ImageJ software (National Institutes of Health).\nTo evaluate the effect of ellagic acid on intestinal oxidative stress, the expression levels of CYP2E1, iNOS, and 3-NT proteins were measured."}, "[2]": {"test": "blood alcohol concentration (BAC) in alcohol-exposed mice", "conditions": "EA-pretreated group; FIG. 16", "method": "as §1\n(§3) Levels of plasma ROS were visualized with 2′,7′-dichlorofluorescein diacetate (DCFH-DA) purchased from Thermo Fisher Scientific. After the DCFH-DA was incubated at 37° C. for 20 minutes, DCFH-DA fluorescence was measured. Plasma alcohol levels were measured using a commercially available kit manufactured by BioVision.\n(§4) To evaluate the effect of ellagic acid (EA) on hepatic fat accumulation, and plasma ALT and hepatic triglyceride levels, liver tissues taken from mouse models were histologically analyzed through H/E staining and Oil Red O staining."}, "[3]": {"test_system": "fat accumulation in the liver", "test": "liver histology (H/E and Oil Red O staining) in alcohol-exposed mice", "conditions": "EA-pretreated group vs alcohol-exposed group, FIGS. 12 and 13", "method": "as §1\n(§5) Portions of the largest liver lobes or small intestines from the mice pretreated with ellagic acid and from the controls were fixed in neutral formalin. […] Plasma ALT levels of each mouse were measured using a standard endpoint colorimetric assay kit (Bio Vision, Milpitas, Calif.).\nas §4"}, "intestinal cells": {"test_system": "intestinal cells", "test": "apoptosis of intestinal cells in alcohol-exposed mice", "conditions": "EA pretreatment group, alcohol-induced; FIG. 11", "method": "as §1\nSmall intestine and liver specimens were fixed overnight in 10% buffered formalin and embedded in paraffin. […]\n(§6) Changes in the expression of intestinal tight junction (TJ) and anchoring junction (AJ) proteins are observed in mouse models with alcohol-induced intestinal leak. To evaluate whether ellagic acid (EA) prevents alcohol-induced intestinal leakage, the expression levels of intestinal TJ and AJ proteins after the ellagic acid administration were measured."}, "[4]": {"test_system": "CYP2E1, iNOS and 3-NT proteins in the liver", "test": "hepatic CYP2E1 expression and activity and oxidative stress marker proteins in alcohol-exposed mice", "quoted_text": "CYP2E1 Activity Analysis Liver solutions were each analyzed with an ELISA kit for CYP2E1, manufactured by Claud-clone corporation (Houston, Tex.), according to the manufacturer's instructions.\nPortions of liver tissue and small intestine from each mouse were homogenized with RIPA buffer. Equally pooled protein in an amount of 50 ug collected from different mouse samples within the same group were separated by SDS/PAGE and transferred to nitrocellulose membranes. These membranes were incubated with polyclonal antibodies against CYP2E1 (1:5,000 dilution; Abcam), p-JNK (1:1,000 dilution; Cell Signaling), 3-NT (1:5,000 dilution; Abcam), iNOS (1:5,000 dilution; Abcam), cleaved caspase-3 (1:1,000 dilution; Cell Signaling), ZO-1 (1:5,000 dilution; Abcam), and claudin-1 (1:1,000 dilution; Thermo Fisher). Each mouse monoclonal antibody against JNK (1:1,000 dilution; Cell Signaling), Bax (1:1,000 dilution; Santa Cruz Biotechnology), or +-actin (1:10,000 dilution; Santa Cruz Biotechnology) was used to detect specific antigenic targets. After washing the nitrocellulose membranes three times with PBS at 10-minute intervals, horseradish peroxidase (HRP)-conjugated anti-rabbit or anti-mouse IgG (manufactured by Santa Cruz Biotechnology) was diluted at a ratio of 1:5,000 and used as a secondary antibody. Relative protein images were determined using the HRP-binding secondary antibody and an ECL substrate (Thermo Fishers). The intensity of immune response bands was quantified by density using ImageJ software (National Institutes of Health).\nTo evaluate the effect of ellagic acid (EA) on hepatic oxidative stress, the expression and activity levels of CYP2E1 proteins were measured."}, "[5]": {"test_system": "hepatic triglyceride (TG)", "test": "hepatic triglyceride (TG) level in alcohol-exposed mice", "conditions": "EA-pretreated group vs alcohol-exposed group; FIG. 14", "method": "as §1\nThe level of triglyceride (TG) in the liver was measured using a commercially available kit manufactured by Asan Co., Ltd. (Gimpo, South Korea).\nas §4"}, "plasma ALT": {"test_system": "plasma ALT", "test": "plasma ALT level in alcohol-exposed mice", "conditions": "EA-pretreated group vs alcohol-exposed group; FIG. 15", "method": "as §1, §5, §4"}, "plasma endotoxin": {"test_system": "plasma endotoxin", "test": "plasma endotoxin level (LAL chromogenic kit) in alcohol-exposed mice", "conditions": "EA-pretreated group vs alcohol-exposed group; EA 60 mg/Kg daily oral 14 days; FIG. 7", "method": "as §1\nPlasma endotoxin levels were measured using a commercial endpoint LAL Chromogenic Endotoxin Quantitation Kit manufactured by Thermo Fisher Scientific (Waltham, Mass.) and having a concentration range of 0.015 to 1.2 EU/mL.\nas §2"}, "plasma ROS": {"test_system": "plasma ROS", "test": "plasma ROS level (DCFH-DA) in alcohol-exposed mice", "conditions": "FIG. 18", "method": "as §1, §3\nCYP2E1 generates reactive oxygen species (ROS) in alcoholic and nonalcoholic liver disease."}, "[6]": {"test_system": "p-JNK, Bax, cleaved caspase-3 in the liver", "test": "liver apoptosis markers (Western blot, cleaved caspase-3 staining, TUNEL) in alcohol-exposed mice", "method": "as §1\nPortions of liver tissue and small intestine from each mouse were homogenized with RIPA buffer. Equally pooled protein in an amount of 50 ug collected from different mouse samples within the same group were separated by SDS/PAGE and transferred to nitrocellulose membranes. These membranes were incubated with polyclonal antibodies against CYP2E1 (1:5,000 dilution; Abcam), p-JNK (1:1,000 dilution; Cell Signaling), 3-NT (1:5,000 dilution; Abcam), iNOS (1:5,000 dilution; Abcam), cleaved caspase-3 (1:1,000 dilution; Cell Signaling), ZO-1 (1:5,000 dilution; Abcam), and claudin-1 (1:1,000 dilution; Thermo Fisher). Each mouse monoclonal antibody against JNK (1:1,000 dilution; Cell Signaling), Bax (1:1,000 dilution; Santa Cruz Biotechnology), or […] (1:10,000 dilution; Santa Cruz Biotechnology) was used to detect specific antigenic targets. […] Relative protein images were determined using the HRP-binding secondary antibody and an ECL substrate (Thermo Fishers). The intensity of immune response bands was quantified by density using ImageJ software (National Institutes of Health). […]"}, "ZO-1 and β-catenin": {"test_system": "ZO-1 and β-catenin", "test": "intestinal tight junction (TJ) and anchoring junction (AJ) protein expression in alcohol-exposed mice", "conditions": "EA-pretreated group within the alcohol-exposed group; FIG. 10", "method": "as §1, with “After the administration of ellagic acid for 14 days, alcohol or dextrose (control) was orally administered to some of the mice at a dose of 5 g/Kg, three times at 12-hour intervals. The mice were sacrificied 1 hour after the last administration.” left out\nPortions of liver tissue and small intestine from each mouse were homogenized with RIPA buffer. […] Relative protein images were determined using the HRP-binding secondary antibody and an ECL substrate (Thermo Fishers). The intensity of immune response bands was quantified by density using ImageJ software (National Institutes of Health).\nas §6"}, "[7]": {"conditions": "summary statement, alcohol intake"}, "[8]": {"conditions": "EA-pretreated group vs alcohol-exposed group, FIGS. 17 and 19"}, "[9]": {"conditions": "EA-pretreated group vs alcohol-exposed mice, FIG. 19"}, "[10]": {"conditions": "EA-pretreated group vs alcohol-exposed group, Western blot, FIG. 20"}},
  "data": [
    {"compound": "O=c1oc2c(O)c(O)cc3c(=O)oc4c(O)c(O)cc1c4c23", "note": "[ellagic acid]", "values": [
      {"measurement": "gene of the genus Bacteroides", "setting": "cecal microbiota; EA-pretreated mice vs alcohol-exposed group, EA 60 mg/Kg daily oral 14 days, alcohol 5 g/Kg three times, FIG. 4", "value": "decreased"},
      {"measurement": "gene level of E. coli", "setting": "cecal microbiota; EA-pretreated mice vs alcohol-exposed group, EA 60 mg/Kg daily oral 14 days, alcohol 5 g/Kg three times, FIG. 5", "value": "decreased to a level similar to that of the control group"},
      {"measurement": "change in intestinal microbial distribution at the phylum level", "setting": "cecal microbiota; control group and EA pretreatment group, EA 60 mg/Kg daily oral 14 days, female C57BL/6J mice, FIGS. 2 and 3", "value": "no significant change"},
      {"measurement": "growth of Bacteroidetes (harmful bacteria) attributable to alcohol intake", "setting": "cecal microbiota; [7]", "value": "inhibits the growth"},
      {"measurement": "growth of Firmicutes (beneficial bacteria)", "setting": "cecal microbiota; [7]", "value": "increases the growth"},
      {"measurement": "growth of Verrucomicrobia (harmful bacteria) attributable to alcohol intake", "setting": "cecal microbiota; [7]", "value": "inhibits the growth"},
      {"measurement": "alcohol-induced increase in intestinal TNF-α level", "setting": "TNF-α", "value": "suppressed"},
      {"measurement": "level of 3-NT proteins in the intestine", "setting": "[1]", "value": "decreased"},
      {"measurement": "level of CYP2E1 protein in the intestine", "setting": "[1]", "value": "decreased"},
      {"measurement": "level of iNOS protein in the intestine", "setting": "[1]", "value": "decreased"},
      {"measurement": "increase in blood alcohol concentration (BAC) caused by alcohol intake", "setting": "[2]", "value": "suppressed"},
      {"measurement": "fat accumulation in the liver", "setting": "[3]", "value": "decreased"},
      {"measurement": "apoptosis of intestinal cells", "setting": "intestinal cells", "value": "decrease"},
      {"measurement": "activity level of CYP2E1 proteins in the liver", "setting": "[4]; [8]", "value": "decreased"},
      {"measurement": "expression level of CYP2E1 proteins in the liver", "setting": "[4]; [8]", "value": "decreased"},
      {"measurement": "hepatic 3-NT proteins", "setting": "[4]; [9]", "value": "decreased"},
      {"measurement": "hepatic inducible nitric oxide synthase (iNOS) protein", "setting": "[4]; [9]", "value": "decreased"},
      {"measurement": "hepatic triglyceride (TG) level", "setting": "[5]", "value": "decreased"},
      {"measurement": "plasma ALT level", "setting": "plasma ALT", "value": "decreased"},
      {"measurement": "alcohol-induced increase in plasma endotoxin concentration", "setting": "plasma endotoxin", "value": "suppressed"},
      {"measurement": "increase in the level of plasma ROS attributable to alcohol intake", "setting": "plasma ROS", "value": "suppressed"},
      {"measurement": "Bax (apoptosis marker protein) in the liver", "setting": "[6]; [10]", "value": "decreased"},
      {"measurement": "p-JNK (apoptosis marker protein) in the liver", "setting": "[6]; [10]", "value": "decreased"},
      {"measurement": "apoptosis marker proteins by cleaved caspase-3 staining and TUNEL analysis in the liver", "setting": "[6]; EA-pretreated group vs mice exposed to alcohol, FIGS. 21 and 22", "value": "decreased"},
      {"measurement": "level of intestinal ZO-1", "setting": "ZO-1 and β-catenin", "value": "recovery"},
      {"measurement": "level of intestinal β-catenin", "setting": "ZO-1 and β-catenin", "value": "recovery"}
    ]}
  ]
}
